27 compounds from ChEMBL document CHEMBL2440045, “The synthesis and anticancer activity of analogs of the indole phytoalexins brassinin, 1-methoxyspirobrassinol methyl ether and cyclobrassinin” (Bioorg Med Chem, 2013) can be followed below.

Assay [1] has as its system MCF7. Put plainly: Selectivity index, ratio of IC50 for HUVEC to IC50 for human MCF7 cells.
Assay [2] deals with MDA-MB-231. In words: Antiproliferative activity against human MDA-MB-231 cells assessed as cell viability after 72 hrs by MTT assay. Format: functional, cell-based. To be noted: MDA-MB-231, 72 h.
Assay [3] concerns HeLa. Put plainly: Antiproliferative activity against human HeLa cells assessed as cell viability after 72 hrs by MTT assay. It is filed as functional, cell-based. (In general: Tetrazolium assays rely on reduction of a dye to a coloured formazan, in cell work by metabolically active cells.)
The subject of assay [4] is CCRF-CEM. Put plainly: Selectivity index, ratio of IC50 for HUVEC to IC50 for human CCRF-CEM cells.
Assay [5] concerns Jurkat. Put plainly: Selectivity index, ratio of IC50 for HUVEC to IC50 for human Jurkat cells.
For assay [6], the system named is CCRF-CEM. Put plainly: Antiproliferative activity against human CCRF-CEM cells assessed as cell viability after 72 hrs by MTT assay. It is filed as functional, cell-based.
Assay [7] relates to A549. In words: Antiproliferative activity against human A549 cells assessed as cell viability after 72 hrs by MTT assay. Format: functional, cell-based. To be noted: A549, 72 h.
Assay [8] concerns A549. Put plainly: Selectivity index, ratio of IC50 for HUVEC to IC50 for human A549 cells.
In assay [9] the test system is Jurkat. In words: Antiproliferative activity against human Jurkat cells assessed as cell viability after 72 hrs by MTT assay. Format: functional, cell-based.
Assay [10] has as its system HeLa. Put plainly: Selectivity index, ratio of IC50 for HUVEC to IC50 for human HeLa cells.
Assay [11] can be described thus: Selectivity index, ratio of IC50 for HUVEC to IC50 for human MDA-MB-231 cells.
Assay [12] concerns MCF7. In words: Antiproliferative activity against human MCF7 cells assessed as cell viability after 72 hrs by MTT assay. It is filed as functional, cell-based. Conditions: MCF7, 72 h.
In assay [13] the test system is HUVEC. Put plainly: Cytotoxicity against HUVEC assessed as cell viability after 48 hrs by MTT assay. Format: cell-based. Conditions: Homo sapiens.

SMILES strings stand for the structures.

Broadly, the IC50 is the concentration at which inhibition is half-maximal.

For the compound `FC(F)(F)c1cc(NC2=NCc3c([nH]c4ccccc34)S2)cc(C(F)(F)F)c1`, the “Ratio IC50” value in assay [1] is listed as 1.3; in assay [4] it was 6.6; in assay [5], 6.6; in assay [8] it was 0.7; in assay [10], 0.7; in [11] it was 1.3. Further, the IC50 in assay [2] was 37.1 µM; in [3], 69.8 µM; in assay [6], 7.5 µM; in [7], 70.1 µM; in assay [9] it was 7.5 µM; in [12] it was 38.7 µM. Also, in assay [13], the IC50 is 49.6 µM.
For `COc1ccc(NC2=NC[C@]3(S2)c2ccccc2N(C(=O)OC(C)(C)C)[C@@H]3OC)cc1` (racemic), the IC50 in assay [2] was found to be 38.3 µM; in [3] it was 25 µM; in [6], 24.7 µM; in assay [7] it was 31.3 µM; in [9] it was 25 µM; in assay [12], 31.2 µM.
Take `CO[C@H]1N(C(=O)OC(C)(C)C)c2ccccc2[C@@]12CN=C(Nc1ccc(C)cc1)S2` (racemic): the IC50 in [2] is 35.6 µM; in assay [3], 20.2 µM; in [6], 14.4 µM; in assay [7] it was 31.4 µM; in assay [9] it was 25.7 µM; in assay [12], 32.9 µM.
Turning to `CO[C@@H]1N(C(=O)OC(C)(C)C)c2ccccc2[C@@]12CN=C(Nc1ccc(C)cc1)S2` (racemic), the IC50 in [2] was found to be 35.5 µM; in [3], 23 µM; in assay [6], 19 µM; in assay [7], 30.5 µM; in assay [9] it was 9 µM; in assay [12], 31.5 µM.
Take `CO[C@H]1N(C(=O)OC(C)(C)C)c2ccccc2[C@@]12CN=C(Nc1ccc([N+](=O)[O-])cc1)S2` (racemic): the IC50 worked out at 37.5 µM in [2]; 31.3 µM in assay [3]; 18.4 µM in assay [6]; 33 µM in assay [7]; 20.2 µM in assay [9]; 33 µM in assay [12].
For the compound `CO[C@H]1N(C(=O)OC(C)(C)C)c2ccccc2[C@@]12CN=C(Nc1ccc(C(F)(F)F)cc1)S2` (racemic), the IC50 in [2] was determined as 28.6 µM; in assay [3], 32.7 µM; in assay [6] it was 7.2 µM; in assay [7], 24.6 µM; in assay [9], 9.3 µM; in [12], 26.5 µM.
On to `CO[C@@H]1N(C(=O)OC(C)(C)C)c2ccccc2[C@@]12CN=C(Nc1ccc(C(F)(F)F)cc1)S2` (racemic), for which the half-inhibitory concentration (IC50) came out at 21.3 µM in [2]; 11.3 µM in [3]; 6.7 µM in [6]; 17.9 µM in [7]; 5.6 µM in [9]; 11.1 µM in [12].
As for `CO[C@@H]1N(C(=O)OC(C)(C)C)c2ccccc2[C@@]12CN=C(Nc1cc(C(F)(F)F)cc(C(F)(F)F)c1)S2` (racemic), the concentration for half-maximal inhibition (IC50) in [2] came out at 38.6 µM; in assay [3], 34.2 µM; in assay [6], 17.2 µM; in assay [7] it was 29 µM; in [9] it was 21.5 µM; in assay [12] it was 20.9 µM.
For the compound `CO[C@@H]1N(C(=O)OC(C)(C)C)c2ccccc2[C@@]12CN=C(N(C)c1ccccc1)S2` (racemic), the IC50 in [2] was found to be 27.5 µM; in assay [3], 32 µM; in [6], 26.6 µM; in assay [7], 28.7 µM; in assay [9], 26 µM; in assay [12], 28 µM.
In the case of `CNC1=NC[C@]2(S1)c1ccccc1N(C(=O)OC(C)(C)C)[C@@H]2OC` (racemic), the IC50 in assay [2] is over 100 µM; in assay [3], over 100 µM; in assay [6], 44.4 µM; in [7], over 100 µM; in assay [9] it was 83.4 µM; in assay [12], over 100 µM.
Turning to `CNC1=NC[C@]2(S1)c1ccccc1N(C(=O)OC(C)(C)C)[C@H]2OC` (racemic), the IC50 is over 100 µM in assay [2]; over 100 µM in [3]; 53 µM in [6]; over 100 µM in assay [7]; 42 µM in assay [9]; over 100 µM in assay [12].
For the compound `CO[C@H]1N(C(=O)OC(C)(C)C)c2ccccc2[C@@]12CN=C(NC1CCCCC1)S2` (racemic), the concentration for half-maximal inhibition (IC50) in assay [2] was 26.1 µM; in assay [3], 32 µM; in assay [6] it was 5.1 µM; in assay [7], 27.7 µM; in assay [9], 5.2 µM; in [12], 27.5 µM.
Consider `CO[C@H]1N(C(=O)OC(C)(C)C)c2ccccc2[C@@]12CN=C(SC)S2` (racemic), for which the concentration for half-maximal inhibition (IC50) in assay [2] worked out at 87 µM; in assay [3], 74.3 µM; in assay [6], 37.9 µM; in assay [7], 70.5 µM; in assay [9], 37.3 µM; in assay [12] it was 70.2 µM.
Consider `CO[C@@H]1N(C(=O)OC(C)(C)C)c2ccccc2[C@@]12CN=C(SC)S2` (racemic), for which the IC50 in assay [2] was determined as 97.7 µM; in assay [3], 77.6 µM; in assay [6], 41.9 µM; in assay [7], 96.3 µM; in assay [9] it was 43.4 µM; in [12] it was 100 µM.
For the compound `CO[C@H]1N(C(=O)OC(C)(C)C)c2ccccc2[C@@]12CN=C(Nc1ccccc1)S2` (racemic), the IC50 in [2] was determined as 40.3 µM; in [3] it was 31.7 µM; in assay [6] it was 12.2 µM; in [7] it was 29.2 µM; in [9], 10 µM; in [12], 6.2 µM.
Turning to `CO[C@@H]1N(C(=O)OC(C)(C)C)c2ccccc2[C@@]12CN=C(Nc1ccccc1)S2` (racemic), the half-maximal inhibitory concentration (IC50) is 34 µM in [2]; 28 µM in [3]; 22 µM in [6]; 34 µM in assay [7]; 19 µM in [9]; 32 µM in assay [12].
As to `CO[C@H]1N(C(=O)OC(C)(C)C)c2ccccc2[C@@]12CN=C(Nc1ccc(Br)cc1)S2` (racemic), the IC50 in [2] was determined as 31.5 µM; in [3], 28 µM; in assay [6], 5 µM; in [7], 33 µM; in assay [9], 8 µM; in [12], 29.5 µM.
As to `CO[C@@H]1N(C(=O)OC(C)(C)C)c2ccccc2[C@@]12CN=C(Nc1ccc(Br)cc1)S2` (racemic), the IC50 in assay [2] is over 100 µM; in assay [3], 65.5 µM; in [6], 50 µM; in assay [7], 76 µM; in assay [9], 30 µM; in assay [12], 78 µM.
Consider `CO[C@H]1N(C(=O)OC(C)(C)C)c2ccccc2[C@@]12CN=C(Nc1ccc(F)cc1)S2` (racemic), for which the IC50 was 30 µM in assay [2]; 29 µM in assay [3]; 27 µM in assay [6]; 30 µM in [7]; 19 µM in [9]; 30 µM in assay [12].
Regarding `CO[C@@H]1N(C(=O)OC(C)(C)C)c2ccccc2[C@@]12CN=C(Nc1ccc(F)cc1)S2` (racemic), the IC50 in assay [2] was determined as 32.5 µM; in [3], 27.5 µM; in [6], 14.5 µM; in [7] it was 34 µM; in assay [9], 15 µM; in assay [12] it was 30.5 µM.
`CO[C@H]1N(C(=O)OC(C)(C)C)c2ccccc2[C@@]12CN=C(Nc1ccc(Cl)cc1)S2` (racemic): the IC50 stood at 42 µM in assay [2]; 20.8 µM in assay [3]; 26.5 µM in assay [6]; 26 µM in assay [7]; 23.5 µM in assay [9]; 36.5 µM in assay [12].
For the compound `CO[C@@H]1N(C(=O)OC(C)(C)C)c2ccccc2[C@@]12CN=C(Nc1ccc(Cl)cc1)S2` (racemic), the IC50 in assay [2] came to 20.5 µM; in [3], 10 µM; in assay [6] it was 19 µM; in assay [7], 16.5 µM; in [9] it was 7 µM; in [12], 16 µM.
With `COn1cc(CNC(=S)SC)c2ccccc21` [1-METHOXYBRASSININ], the concentration for half-maximal inhibition (IC50) in assay [2] is over 100 µM; in [3], over 100 µM; in assay [6], 63.5 µM; in [7] it was over 100 µM; in assay [9] it was 37.5 µM; in assay [12], over 100 µM.
Regarding `CSC(=S)NCc1c[nH]c2ccccc12` [BRASSININ], the IC50 in assay [2] is over 100 µM; in [3], over 100 µM; in [6], 90.2 µM; in assay [7] it was over 100 µM; in assay [9] it was over 100 µM; in assay [12] it was over 100 µM.
In the case of `COc1ccc(/C=C\c2cc(OC)c(OC)c(OC)c2)cc1O` [COMBRETASTATIN A4], in [1], the “Ratio IC50” value was determined as 2. Further, the IC50 in assay [13] came out at 0.005 µM.
Turning to `COc1cccc2c1C(=O)c1c(O)c3c(c(O)c1C2=O)C[C@@](O)(C(=O)CO)C[C@@H]3O[C@H]1C[C@H](N)[C@H](O)[C@H](C)O1` [DOXORUBICIN], the half-inhibitory concentration (IC50) in assay [13] stood at 0.0807 µM.
`COc1cc([C@@H]2c3cc4c(cc3[C@@H](O[C@@H]3O[C@@H]5CO[C@@H](C)O[C@H]5[C@H](O)[C@H]3O)[C@H]3COC(=O)[C@H]23)OCO4)cc(OC)c1O` [ETOPOSIDE]: the “Ratio IC50” value in [1] is listed as 0.11; in assay [4] it was 1.14; in assay [5], 1.04; in assay [8] it was 0.09; in assay [10] it was 0.32; in [11], 0.06. Also, in [13], the half-maximal inhibitory concentration (IC50) is 1.25 µM.
